A word on the IC50: it is the concentration at which inhibition is half-maximal.

One experiment concerns the target MMP-9 (Homo sapiens, UniProt P14780). Description: biochemical.
The next experiment deals with rabbit corneas. It is filed as cell-based.
For another experiment, the target named is T1, human recombinant FAAH (Homo sapiens, UniProt O00519).
T1 construct: purchased Cayman Chemical (Ann Arbor, Mich.)
T1 sequence (O00519 1-579): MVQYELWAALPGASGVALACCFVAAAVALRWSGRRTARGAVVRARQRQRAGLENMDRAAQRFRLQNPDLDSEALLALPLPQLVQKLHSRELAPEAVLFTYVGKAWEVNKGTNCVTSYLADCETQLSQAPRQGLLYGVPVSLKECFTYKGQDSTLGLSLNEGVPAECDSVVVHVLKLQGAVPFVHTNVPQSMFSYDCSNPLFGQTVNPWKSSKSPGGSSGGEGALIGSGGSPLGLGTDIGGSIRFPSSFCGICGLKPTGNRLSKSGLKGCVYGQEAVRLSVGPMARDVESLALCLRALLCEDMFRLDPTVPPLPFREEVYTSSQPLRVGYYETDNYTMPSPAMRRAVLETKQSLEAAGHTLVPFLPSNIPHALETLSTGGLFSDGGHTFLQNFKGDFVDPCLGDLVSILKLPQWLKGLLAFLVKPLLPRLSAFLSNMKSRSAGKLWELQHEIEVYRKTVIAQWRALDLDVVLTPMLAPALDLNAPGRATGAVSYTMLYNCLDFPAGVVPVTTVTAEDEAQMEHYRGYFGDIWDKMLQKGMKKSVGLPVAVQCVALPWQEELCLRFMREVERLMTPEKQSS
The experiment can be described thus: biochemical.

Chain of MMP-9 (P14780 94-707, species assumed): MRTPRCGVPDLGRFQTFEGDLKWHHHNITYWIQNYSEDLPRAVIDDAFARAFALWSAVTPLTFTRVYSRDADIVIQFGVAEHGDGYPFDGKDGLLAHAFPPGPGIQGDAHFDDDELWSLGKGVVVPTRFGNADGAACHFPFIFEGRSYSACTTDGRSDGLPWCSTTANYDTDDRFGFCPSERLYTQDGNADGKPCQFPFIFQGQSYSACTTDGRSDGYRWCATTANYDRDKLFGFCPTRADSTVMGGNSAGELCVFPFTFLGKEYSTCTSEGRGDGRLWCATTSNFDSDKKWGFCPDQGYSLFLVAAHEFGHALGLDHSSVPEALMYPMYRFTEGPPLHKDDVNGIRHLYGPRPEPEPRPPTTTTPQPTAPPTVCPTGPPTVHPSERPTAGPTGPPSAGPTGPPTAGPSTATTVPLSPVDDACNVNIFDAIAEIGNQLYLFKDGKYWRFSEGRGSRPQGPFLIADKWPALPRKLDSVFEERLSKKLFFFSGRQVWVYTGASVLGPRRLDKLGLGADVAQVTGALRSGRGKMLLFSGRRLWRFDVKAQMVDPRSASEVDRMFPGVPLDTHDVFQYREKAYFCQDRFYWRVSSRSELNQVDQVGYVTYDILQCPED

`CCCCCCCCN(O)C(=O)Cc1ccc(O)c(OC)c1` [Compound 10b, N-octyl-N-hydroxy-2-(4-hydroxy-3-methoxyphenyl)acetamide]: at MMP-9, the half-inhibitory concentration (IC50) was found to be 68 µM. Moreover, in the experiment on rabbit corneas, the “basement membrane attached post-treatment” value is recorded as 85% and the “epithelial-stromal separation (detachment)” value is 15%.

On to `CCCCCCCC/C=C\CCCCCCCC(=O)N(O)Cc1ccc(O)c(OC)c1` [Compound 5a, (9Z)—N-Hydroxy-N-[(4-hydroxy-3-methoxyphenyl)methyl]-9-Octadecenamide], for which, at human recombinant FAAH, the half-inhibitory concentration (IC50) was 71 µM. For the same molecule, in the experiment on rabbit corneas, the “basement membrane attached post-treatment” value stood at 70% and the “epithelial-stromal separation (detachment)” value was 30%.

With `COc1cc(CN(O)C(=O)Oc2ccccc2)ccc1O` [Compound 4g, Phenyl-N-hydroxy(4-hydroxy-3-methoxybenzyl)carbamate], the IC50 on human recombinant FAAH was 10 µM. Regarding `CCCCCCCCCCCCOC(=O)N(O)Cc1ccc(O)c(OC)c1` [Compound 4b, Dodecyl-N-hydroxy(4-hydroxy-3-methoxybenzyl)carbamate], the concentration for half-maximal inhibition (IC50) at human recombinant FAAH came to 67 µM. Molecule `CCCCCCCCC(CCCCCC)C(=O)N(O)Cc1ccc(O)c(OC)c1` (stereo not drawn) [Compound 5c, 2-hexyl-N-hydroxy-N-(4-hydroxy-3-methoxybenzyl)decanamide] returned an IC50 against MMP-9 of 99 µM. In the case of `CCCCCCCCCCCCCCCCOC(=O)N(O)Cc1ccc(O)c(OC)c1` [Compound 4a, Hexadecyl-N-hydroxy(4-hydroxy-3-methoxybenzyl)carbamate], the half-maximal inhibitory concentration (IC50) on MMP-9 is 120 µM. As for `CCCCCCCN(O)C(=O)Cc1ccc(O)c(OC)c1` [Compound 10a, N-heptyl-N-hydroxy-2-(4-hydroxy-3-methoxyphenyl)acetamide], the half-maximal inhibitory concentration (IC50) on human recombinant FAAH stood at 192 µM. On to `CCCCCCCCOC(=O)N(O)Cc1ccc(O)c(OC)c1` [Compound 4c, Octyl-N-hydroxy(4-hydroxy-3-methoxybenzyl)carbamate], for which the 50% inhibitory concentration (IC50) on human recombinant FAAH worked out at 73 µM.

Source of the values: US9422233B2 (priority 2011, dated 2016).
